Results: ChEMBL document CHEMBL3885881, “DrugMatrix”

Organism: Rattus norvegicus
Experiment: DrugMatrix - Regimen: Daily Repeat
Format: toxicity, organism-based, Sprague-Dawley
Parameters: regimen Daily Repeat, gender Male, age 6-8 weeks
Conditions: in vivo, po, route oral GAVAGE, vehicle 100 % WATER; for ABSOLUTE BASOPHIL / ABSOLUTE EOSINOPHIL / ABSOLUTE LYMPHOCYTE / ABSOLUTE MONOCYTE / ABSOLUTE SEGMENTED NEUTROPHIL / BASOPHIL / EOSINOPHIL / ERYTHROCYTE COUNT / HEMATOCRIT / HEMOGLOBIN / LEUKOCYTE COUNT / LYMPHOCYTE / MEAN CORPUSCULAR HEMOGLOBIN / MEAN CORPUSCULAR HEMOGLOBIN CONCENTRATION / MEAN CORPUSCULAR VOLUME / MONOCYTE / NEUTROPHIL / NUCLEATED RED BLOOD CELLS / PLATELET COUNT: tissue Blood; for ALANINE AMINOTRANSFERASE / ALBUMIN / ALKALINE PHOSPHATASE / ASPARTATE AMINOTRANSFERASE / BLOOD UREA NITROGEN / CARBON DIOXIDE / CHLORIDE / CHOLESTEROL / CREATINE PHOSPHOKINASE / CREATININE / GLUCOSE / LACTATE DEHYDROGENASE / LIPASE / PHOSPHORUS / POTASSIUM / SODIUM / TOTAL BILIRUBIN / TOTAL PROTEIN / URIC ACID: tissue Plasma
[1] = 0 mg/kg, 72 h, dose level Control, time 3 day
[2] = 0 mg/kg, 120 h, dose level Control, time 5 day
[3] = 30 mg/kg, 72 h, dose level Low, time 3 day
[4] = 30 mg/kg, 120 h, dose level Low, time 5 day

For `COc1cccc(C2(O)CCCCC2CN(C)C)c1` (configuration not stated) [TRAMADOL], the “ABSOLUTE BASOPHIL” value [1] was 0 CELLS/uL, the “ABSOLUTE EOSINOPHIL” value [1] was 32.5 CELLS/uL and the “ABSOLUTE LYMPHOCYTE” value [1] was 9305.83 CELLS/uL. The “ABSOLUTE MONOCYTE” value [1] was 43.83 CELLS/uL, the “ABSOLUTE SEGMENTED NEUTROPHIL” value [1] was 817.83 CELLS/uL and the BASOPHIL [1] was 0%. The EOSINOPHIL [1] was 0.33%, the “ERYTHROCYTE COUNT” value [1] was 5.38 x10E6/uL and the HEMATOCRIT [1] was 33.63%. The HEMOGLOBIN [1] was 13.17 G/DL, the “LEUKOCYTE COUNT” value [1] was 10.2 x10E3/uL and the LYMPHOCYTE [1] was 91.17%. For the same compound, the “MEAN CORPUSCULAR HEMOGLOBIN” value [1] was 24.5 pg, the “MEAN CORPUSCULAR HEMOGLOBIN CONCENTRATION” value [1] was 39.13 G/DL and the “MEAN CORPUSCULAR VOLUME” value [1] was 62.53 fL. The MONOCYTE [1] was 0.5%, the NEUTROPHIL [1] was 8% and the “NUCLEATED RED BLOOD CELLS” value [1] was 0.17 /100WBC. For the same compound, the “PLATELET COUNT” value [1] was 858 x10E3/uL, the “ALANINE AMINOTRANSFERASE” value [1] was 55.67 u/L and the ALBUMIN [1] was 4.07 G/DL. For the same compound, the “ALKALINE PHOSPHATASE” value [1] was 337 u/L, the “ASPARTATE AMINOTRANSFERASE” value [1] was 84 u/L and the “BLOOD UREA NITROGEN” value [1] was 13.17 mg/dL. For the same compound, the “CARBON DIOXIDE” value [1] was 34.17 mmol/L, the CHLORIDE [1] was 99.33 MEQ/L and the CHOLESTEROL [1] was 78.83 mg/dL. For the same compound, the “CREATINE PHOSPHOKINASE” value [1] was 576.83 u/L, the CREATININE [1] was 0.17 mg/dL and the GLUCOSE [1] was 152.67 mg/dL. The “LACTATE DEHYDROGENASE” value [1] was 147.83 u/L, the LIPASE [1] was 9.5 u/L and the PHOSPHORUS [1] was 10.78 mg/dL. For the same compound, the POTASSIUM [1] was 6.34 MEQ/L, the SODIUM [1] was 144.12 MEQ/L and the “TOTAL BILIRUBIN” value [1] was 0.18 mg/dL. For the same compound, the “TOTAL PROTEIN” value [1] was 6.08 G/DL, the “URIC ACID” value [1] was 0.65 mg/dL and the “ABSOLUTE BASOPHIL” value [2] was 0 CELLS/uL. For the same compound, the “ABSOLUTE EOSINOPHIL” value [2] was 31.17 CELLS/uL, the “ABSOLUTE LYMPHOCYTE” value [2] was 7918.33 CELLS/uL and the “ABSOLUTE MONOCYTE” value [2] was 58.33 CELLS/uL. The “ABSOLUTE SEGMENTED NEUTROPHIL” value [2] was 725.5 CELLS/uL, the BASOPHIL [2] was 0% and the EOSINOPHIL [2] was 0.33%. For the same compound, the “ERYTHROCYTE COUNT” value [2] was 5.32 x10E6/uL, the HEMATOCRIT [2] was 33.53% and the HEMOGLOBIN [2] was 13.17 G/DL. The “LEUKOCYTE COUNT” value [2] was 8.73 x10E3/uL, the LYMPHOCYTE [2] was 90.33% and the “MEAN CORPUSCULAR HEMOGLOBIN” value [2] was 24.82 pg. The “MEAN CORPUSCULAR HEMOGLOBIN CONCENTRATION” value [2] was 39.33 G/DL, the “MEAN CORPUSCULAR VOLUME” value [2] was 63.12 fL and the MONOCYTE [2] was 0.67%. For the same compound, the NEUTROPHIL [2] was 8.67%, the “NUCLEATED RED BLOOD CELLS” value [2] was 0 /100WBC and the “PLATELET COUNT” value [2] was 1144.83 x10E3/uL. The “ALANINE AMINOTRANSFERASE” value [2] was 60.5 u/L, the ALBUMIN [2] was 3.97 G/DL and the “ALKALINE PHOSPHATASE” value [2] was 343.17 u/L. The “ASPARTATE AMINOTRANSFERASE” value [2] was 80.83 u/L, the “BLOOD UREA NITROGEN” value [2] was 15 mg/dL and the “CARBON DIOXIDE” value [2] was 31 mmol/L. For the same compound, the CHLORIDE [2] was 99.75 MEQ/L, the CHOLESTEROL [2] was 71.5 mg/dL and the “CREATINE PHOSPHOKINASE” value [2] was 237.17 u/L. For the same compound, the CREATININE [2] was 0.17 mg/dL, the GLUCOSE [2] was 137 mg/dL and the “LACTATE DEHYDROGENASE” value [2] was 146.17 u/L. For the same compound, the LIPASE [2] was 11.5 u/L, the PHOSPHORUS [2] was 10.13 mg/dL and the POTASSIUM [2] was 6 MEQ/L. The SODIUM [2] was 145 MEQ/L, the “TOTAL BILIRUBIN” value [2] was 0.13 mg/dL and the “TOTAL PROTEIN” value [2] was 5.82 G/DL. The “URIC ACID” value [2] was 0.62 mg/dL, the “ABSOLUTE BASOPHIL” value [3] was 0 CELLS/uL and the “ABSOLUTE EOSINOPHIL” value [3] was 0 CELLS/uL. The “ABSOLUTE LYMPHOCYTE” value [3] was 6045 CELLS/uL, the “ABSOLUTE MONOCYTE” value [3] was 124.33 CELLS/uL and the “ABSOLUTE SEGMENTED NEUTROPHIL” value [3] was 697.33 CELLS/uL. The BASOPHIL [3] was 0%, the EOSINOPHIL [3] was 0% and the “ERYTHROCYTE COUNT” value [3] was 5.35 x10E6/uL. The HEMATOCRIT [3] was 33.3%, the HEMOGLOBIN [3] was 13.03 G/DL and the “LEUKOCYTE COUNT” value [3] was 6.87 x10E3/uL. For the same compound, the LYMPHOCYTE [3] was 88.33%, the “MEAN CORPUSCULAR HEMOGLOBIN” value [3] was 24.4 pg and the “MEAN CORPUSCULAR HEMOGLOBIN CONCENTRATION” value [3] was 39.13 G/DL. The “MEAN CORPUSCULAR VOLUME” value [3] was 62.23 fL, the MONOCYTE [3] was 1.67% and the NEUTROPHIL [3] was 10%. The “NUCLEATED RED BLOOD CELLS” value [3] was 0.67 /100WBC, the “PLATELET COUNT” value [3] was 1017 x10E3/uL and the “ALANINE AMINOTRANSFERASE” value [3] was 47.33 u/L. For the same compound, the ALBUMIN [3] was 4.13 G/DL, the “ALKALINE PHOSPHATASE” value [3] was 434.67 u/L and the “ASPARTATE AMINOTRANSFERASE” value [3] was 82.67 u/L. The “BLOOD UREA NITROGEN” value [3] was 12.33 mg/dL, the “CARBON DIOXIDE” value [3] was 34.67 mmol/L and the CHLORIDE [3] was 99.67 MEQ/L. The CHOLESTEROL [3] was 72.33 mg/dL, the “CREATINE PHOSPHOKINASE” value [3] was 347.67 u/L and the CREATININE [3] was 0.16 mg/dL. For the same compound, the GLUCOSE [3] was 136.33 mg/dL, the “LACTATE DEHYDROGENASE” value [3] was 123.33 u/L and the LIPASE [3] was 9.33 u/L. For the same compound, the PHOSPHORUS [3] was 11 mg/dL, the POTASSIUM [3] was 6.23 MEQ/L and the SODIUM [3] was 144.43 MEQ/L. For the same compound, the “TOTAL BILIRUBIN” value [3] was 0.2 mg/dL, the “TOTAL PROTEIN” value [3] was 5.93 G/DL and the “URIC ACID” value [3] was 0.8 mg/dL. For the same compound, the “ABSOLUTE BASOPHIL” value [4] was 0 CELLS/uL, the “ABSOLUTE EOSINOPHIL” value [4] was 97.33 CELLS/uL and the “ABSOLUTE LYMPHOCYTE” value [4] was 8968.67 CELLS/uL. The “ABSOLUTE MONOCYTE” value [4] was 0 CELLS/uL, the “ABSOLUTE SEGMENTED NEUTROPHIL” value [4] was 967.33 CELLS/uL and the BASOPHIL [4] was 0%. For the same compound, the EOSINOPHIL [4] was 1%, the “ERYTHROCYTE COUNT” value [4] was 5.45 x10E6/uL and the HEMATOCRIT [4] was 35.3%. For the same compound, the HEMOGLOBIN [4] was 13.57 G/DL, the “LEUKOCYTE COUNT” value [4] was 10.03 x10E3/uL and the LYMPHOCYTE [4] was 88.67%. The “MEAN CORPUSCULAR HEMOGLOBIN” value [4] was 24.87 pg, the “MEAN CORPUSCULAR HEMOGLOBIN CONCENTRATION” value [4] was 38.47 G/DL and the “MEAN CORPUSCULAR VOLUME” value [4] was 64.67 fL. For the same compound, the MONOCYTE [4] was 0%, the NEUTROPHIL [4] was 10.33% and the “NUCLEATED RED BLOOD CELLS” value [4] was 0 /100WBC. The “PLATELET COUNT” value [4] was 1078.67 x10E3/uL, the “ALANINE AMINOTRANSFERASE” value [4] was 45 u/L and the ALBUMIN [4] was 4.03 G/DL. For the same compound, the “ALKALINE PHOSPHATASE” value [4] was 395 u/L, the “ASPARTATE AMINOTRANSFERASE” value [4] was 72 u/L and the “BLOOD UREA NITROGEN” value [4] was 13 mg/dL. The “CARBON DIOXIDE” value [4] was 30.67 mmol/L, the CHLORIDE [4] was 99 MEQ/L and the CHOLESTEROL [4] was 69.33 mg/dL. The “CREATINE PHOSPHOKINASE” value [4] was 188 u/L, the CREATININE [4] was 0.17 mg/dL and the GLUCOSE [4] was 143.67 mg/dL. For the same compound, the “LACTATE DEHYDROGENASE” value [4] was 113.33 u/L, the LIPASE [4] was 9.33 u/L and the PHOSPHORUS [4] was 11.2 mg/dL. For the same compound, the POTASSIUM [4] was 6.21 MEQ/L, the SODIUM [4] was 144.27 MEQ/L and the “TOTAL BILIRUBIN” value [4] was 0.2 mg/dL. The “TOTAL PROTEIN” value [4] was 5.8 G/DL and the “URIC ACID” value [4] was 1.2 mg/dL.
